Experimental data from US11382848B2, “Compounds reducing malodour perception and the use thereof” (CHEMCOM S.A., priority 2017, dated 2022).

Legend:
[1] = molecular target: T1, human olfactory receptor OR7D4 (Homo sapiens, UniProt Q8NG98); experiment: OR7D4 luciferase gene reporter assay (antagonism of agonist-induced activation); type: cell-based
T1 construct: transfected with a plasmid containing CRE-luciferase and a plasmid containing OR7D4; expressed in transfected cells; host or cells: HEK293T stably expressing olfactory chaperone proteins of the RTP family
T1 sequence (Q8NG98 1-312): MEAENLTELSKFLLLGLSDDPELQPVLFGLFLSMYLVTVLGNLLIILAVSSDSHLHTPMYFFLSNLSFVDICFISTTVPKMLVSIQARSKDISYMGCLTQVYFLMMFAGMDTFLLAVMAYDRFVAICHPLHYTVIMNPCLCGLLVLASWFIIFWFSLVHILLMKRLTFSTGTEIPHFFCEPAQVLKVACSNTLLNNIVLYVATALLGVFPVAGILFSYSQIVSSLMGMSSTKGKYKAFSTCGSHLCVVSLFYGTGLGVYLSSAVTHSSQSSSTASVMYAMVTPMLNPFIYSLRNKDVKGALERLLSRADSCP
Description: Cells were maintained in minimal essential medium (EMEM, Lonza) containing 10% fetal bovine serum (M10). HEK293T stably expressing olfactory chaperone proteins from the RTP family as described in WO 2006/002161 (introduced here as a reference) were generated by transfecting HEK293T cells with expression vector containing the chaperone gene sequences and a resistance gene to puromycin, using Lipofectamine 2000. A recombinant cell population was selected by adding 10 μg/ml of puromycin into the culture medium. Monoclonal populations were further obtained by limit dilution procedure. Briefly, a cell suspension was diluted to contain 1 cell per ml and this dilution was dispatched in poly-D-lysine-coated 96 well plates (200 μl of dilution per well). After 5 days of culture, the presence and number of cell colonies per well was checked under a phase contrast microscope. After 5 additional days of culture, wells containing a single colony were harvested and each collected population was amplified independently.
The 5-alpha-androst-16-ene-3-one, used as an agonist of the human olfactory receptor OR7D4 and the tested molecules were diluted at a concentration of 1 mole/litre (M) into dimethyl sulfoxide (DMSO) to generate stock solutions.
For concentration-response analysis, serial dilutions of the tested molecules were prepared from stock solutions in EMEM plated into 96-well plates.
(§1) Briefly, cells were plated on poly-D-lysine-coated 96-well plates (BD Bioscience, Erembodegem-Dorp, Belgium) and transfected with a plasmid containing CRE-luciferase and a plasmid containing OR7D4. Sixteen hours after transfection, the culture medium was replaced by serum-free EMEM containing the tested ligands at a determined concentration. After four hours of incubation at 37° C. degree, cells were lysed and processed for luminescence measurement according to the manufacturer's protocols. Luminescence emission was recorded on a Spectra Max M5 reader (Molecular Devices, Sunnyvale, Calif.). Results were expressed as percentage of the response induced by 10 μM of the adenylate cyclase activator Forskolin.
The ability of the compounds of the invention to inhibit the activity of androstenone on OR7D4 receptor was assessed by the luciferase assay described above.
To determine whether a molecule antagonizes OR7D4, this compound was introduced in the incubation medium of the Luciferase assay described above at a concentration of either 316 μM, 100 μM or 31.6 μM, along with the known activator of the receptor 5α-androst-16-en-3-one at a concentration of 31.6 μM. Molecules were considered as “hits” i.e., as having an antagonist effect on the receptor, if they induced a decrease of at least 50% of the luciferase production elicited upon activation of OR7D4 by 5α-androst-16-en-3-one.
Putative antagonist molecule libraries containing compound 1 and other types of molecules were used to identify antagonist of the receptor OR7D4. The screening campaign was performed on the OR7D4 with a series of 112 putative antagonist molecules. In this screening campaign, compound 1 was identified as a hit.
The compound 1 was further confirmed as antagonist of OR7D4 by performing dose-response analysis using the luciferase assay. Different concentrations of compound 1, ranging from 31.6 nM to 1 mM were tested on HEK293 cell expressing OR7D4 and stimulated with 31.6 μM of 5α-androst-16-en-3-one.
The antagonistic property of compound 1 on OR7D4 was further confirmed by measuring the response of the OR7D4 to 5α-androsta-4,16-dien-3-one in presence of compound 1, using the luciferase assay as describe hereinabove. The observed inhibition was in the same range as the one observed when stimulating the receptor with 5α-androst-16-en-3-one.
To further explore the antagonism on OR7D4, a series of compounds structurally related to compound 1 were synthesized and assessed as antagonists of OR7D4 by dose-response analysis using the luciferase assay. […]

[2] = system: perception of androstenone; experiment: Alternative sensory test with Tedlar bags and expert panel
Description: The test consists, in a first step, in microinjecting androstenone (at 0.6% in ethanol), compound 1 (pure) or androstenone+compound 1 in 10 L Tedlar™ bags specially conceived for gas sampling, previously loaded with a known volume of pure air (from oil free compressor with additional charcoal filters). Than the compound of interest (EtOH solution) is injected with a high accuracy micro-syringe through a septum placed on the tap-valve.
The odour presentation device consists of a cylinder to be filled with clean air. The bag is inserted in the cylinder and connected to a sampling installation in the cylinder by means of a valve. By controlled injection of clean air into the cylinder, the interior pressure is raised and the sampling air is pressed in a controlled manner out of the sample container through the opened valve. This sampling air is transferred to the nose of the corresponding sensory odour panel member by means of a funnel. By this means, each sensory odour panel member receives an identical sample with a standardized volume flow and a constant provision time. The outlet flow rate is between 10-20 L/min (in order to avoid any mixing with ambient air before reaching the nose).
The expert panel is entering the room 15 minutes before starting the test. The basic standard test is a rating in intensity and the use of the closest chemical descriptors according to the following order of presentation:
Each assessor can smell for few seconds. A pause of min. 1 minute is considered between presentations.
The individual rating is done with a resolution of 0.5 on a scale ranging from 0 (no odour) to 5 (saturating odour).

[3] = system: forskolin-induced, receptor-independent production of cAMP / Luciferase; experiment: Forskolin control in cells not expressing the receptor (luciferase assay); type: cell-based; settings: cells that did not express the receptor, stimulated by forskolin
Description: as §1

[4] = dose-response, luciferase assay, half decrease of the luciferase production obtained without antagonist, androstenone at 31.6 micromolar

Row | Compound | IC50 [1, 4] | further results
1 | CCCCCc1ccccc1/C=C/C=C/C(=O)OCC [Compound 4, ethyl (2E,4E)-5-(2-pentylphenyl)penta-2,4-dienoate] | 16 µM | 
2 | CCCCCCC(/C=C/C=O)=C\c1ccccc1 [Compound 39, (E)-4-((E)-benzylidene)dec-2-enal] | 6 µM | 
3 | CCCCCCC(/C=C(\C)COC)=C\c1ccccc1 [Compound 42, ((E)-2-((E)-3-methoxy-2-methylprop-1-en-1-yl)oct-1-en-1-yl)benzene] | 25 µM | 
4 | CCCCCCC(/C=C/C(N)=O)=C\c1ccccc1 [Compound 27] | 14 µM | 
5 | CCCCCC(/C=C(\C)CO)=C\c1ccccc1 [Compound 34] | 19 µM | 
6 | (E)-4-((E)-4-fluorobenzylidene)dec-2-enal [Compound 38] | 25 µM | 
7 | CCCCCC(/C=C/C(=O)OC)=C\c1ccc(F)cc1 [Compound 46, methyl (2E,4E)-4-(4-fluorobenzylidene)-2-nonenoate] | 25 µM | 
8 | CCCCCCC(/C=C/C(=O)OC)=C\c1ccccc1 [Compound 10] | 2 µM | 
9 | CCOC(=O)/C(C)=C/C(=C/c1ccccc1)C(C)CC(C)(C)C (stereo not shown) [Compound 11] | 8 µM | 
10 | CCCc1ccccc1/C=C/C=C/C(=O)OCC [Compound 3, ethyl (2E,4E)-5-(2-propylphenyl)penta-2,4-dienoate] | 50 µM | 
11 | CCCCCCC(=C\c1ccccc1)/C=C(\C)C(=O)OCC [Compound 1, ethyl (E)-4-((E)-benzylidene)-2-methyldec-2-enoate] | 2 µM | Luciferase activity elicited by 5α-androst-16-en-3-one, dose-response (FIG. 1) ([1]; 31.6 nM to 1 mM compound, HEK293 cell expressing OR7D4 stimulated with 31.6 μM 5α-androst-16-en-3-one): decrease of Luciferase activity; hit in antagonist screening (decrease of at least 50% of the luciferase production) ([1]; compound at 316 μM, 100 μM or 31.6 μM with 5α-androst-16-en-3-one at 31.6 μM, 112 putative antagonist molecules screened): hit; IC50 ([1]; response of OR7D4 to 5α-androsta-4,16-dien-3-one in presence of compound): 2.5 µM; typical odour of sweat of Androstenone when smelled in the presence of the compound ([2]; Androstenone + compound 1): completely disappears; intrinsic smell ([2]; compound 1 alone): mushroom; odour intensity ([2]; compound 1 alone compared with androstenone alone): lower than the one of androstenone alone; forskolin-induced production of Luciferase [3]: not affected
12 | CCOC(=O)/C(C)=C/C(=C/c1ccccc1OCC)CC [Compound 6, ethyl (E)-4-((E)-2-ethoxybenzylidene)-2-methylhex-2-enoate] | 25 µM | 
13 | CCCCCCC(=C\c1ccccc1)/C=C(\C)C(=O)O [Compound 21, 4-benzylidene-2-methyldec-2-enoic Acid] | 62 µM | 
14 | CCc1cccc(/C=C(C)/C=C/C(=O)N(C)C)c1 [Compound 25, (2E,4E)-5-(3-ethylphenyl)-N,N,4-trimethylpenta-2,4-dienamide] | 126 µM | 
15 | CCCCCCC(/C=C/C(=O)OCC)=C\c1ccccc1 [Compound 13] | 7 µM | 
